What was measured:
[1] = target: T1, human vasopressin V2 receptor subtype (Homo sapiens, UniProt P30518); experiment: Vasopressin binding in Chinese Hamster Ovary cell membranes expressing human vasopressin V2 subtype receptors; conditions: 100 nM, CHO cell membranes, [3H]arginine vasopressin, values without parentheses
T1 construct: host or cells: CHO cells (pZeoSV vector)
Summary of the method: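 Radioligand displacement on membranes from CHO cells stably expressing human V2 receptor, 25 to 50 μg protein/well, in 50 mM Tris-HCl pH 7.4 with MgCl2, BSA and protease inhibitors. [^3H]arginine vasopressin (8 nM working solution) incubated 60 min at room temperature; bound label measured by filtration and scintillation counting.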

T1 sequence (P30518 whole entry): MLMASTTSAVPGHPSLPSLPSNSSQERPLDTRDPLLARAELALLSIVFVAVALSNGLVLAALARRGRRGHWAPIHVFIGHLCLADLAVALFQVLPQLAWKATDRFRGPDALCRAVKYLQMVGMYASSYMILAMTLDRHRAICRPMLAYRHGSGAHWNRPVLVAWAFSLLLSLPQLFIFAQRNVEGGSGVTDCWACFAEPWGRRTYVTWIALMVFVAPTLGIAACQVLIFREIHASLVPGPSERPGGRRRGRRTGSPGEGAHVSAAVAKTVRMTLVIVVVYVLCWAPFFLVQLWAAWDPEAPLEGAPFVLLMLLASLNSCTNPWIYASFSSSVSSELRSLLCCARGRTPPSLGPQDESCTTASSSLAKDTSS

Compound | melting point | inhibition at 0.1 µM [1]
COc1ccccc1-c1ccc(C(=O)N2Cc3ccc(C(=O)O)n3Cc3ccccc32)cc1C [Example 9, 10-[(2′-Methoxy-2-methyl-[1,1′-biphenyl]-4-yl)carbonyl]-10,11-dihydro-5H-pyrrolo[2,1-c][1,4]benzodiazepine-3-carboxylic acid] | 174 to 184 °C | 42%
COc1cc2c(cc1OC)N(C(=O)c1ccc(-c3ccccc3C(F)(F)F)c(C)c1)Cc1cccn1C2 [Example 12, 7,8-Dimethoxy-[10,11-dihydro-5H-pyrrolo[2,1-c][1,4]benzodiazepin-10-yl][2-methyl-2′-(trifluoromethyl)[1,1′-biphenyl]-4-yl]methanone] | 187 to 188 °C | -1%
COc1cc(-c2ccccc2C(F)(F)F)c(Cl)cc1C(=O)N1Cc2ccc(C(=O)O)n2Cc2ccccc21 [Example 15, 10-{[6-Chloro-3-methoxy-2′-trifluoromethyl-[1,1′-biphenyl]-4-yl]carbonyl}-10,11-dihydro-5H-pyrrolo[2,1-c][1,4]benzodiazepine-3-carboxylic acid] | 220 to 222 °C (dec.) | 27%
C=CCN1CCN(C(=O)c2ccc3n2Cc2ccccc2N(C(=O)c2ccc(-c4ccccc4C(F)(F)F)c(C)c2)C3)CC1 [Example 230, (4-Allyl-1-piperazinyl)(10-{[2-methyl-2′-(trifluoromethyl)[1,1′-biphenyl]-4-yl]carbonyl}-10,11-dihydro-5H-pyrrolo[2,1-c][1,4]benzodiazepin-3-yl)methanone] |  | 4%
C=CCN1CCN(C(=O)c2ccc3n2Cc2ccccc2N(C(=O)c2ccc(-c4ccccc4C)cc2)C3)CC1 [Example 224, (4-Allyl-1-piperazinyl){10-[(2′-methyl[1,1′-biphenyl]-4-yl)carbonyl]-10,11-dihydro-5H -pyrrolo[2,1-c][1,4]benzodiazepin-3-yl}methanone] |  | 7%
COc1ccccc1-c1ccc(C(=O)N2Cc3ccc(C(=O)NCCC4CCCN4C)n3Cc3ccccc32)cc1 (stereo not shown) [Example 165, 10-[(2′-Methoxy[1,1′-biphenyl]-4-yl)carbonyl]-N-[2-(1-methyl-2-pyrrolidinyl)ethyl]-10,11-dihydro-5H-pyrrolo[2,1-c][1,4]benzodiazepine-3-carboxamide] |  | 25%
COc1cc(C(=O)N2Cc3ccc(C(=O)N4CCN(C(C)C)CC4)n3Cc3ccccc32)ccc1-c1ccccc1C [Example 237, (4-isopropyl-1-piperazinyl){10-[(2-methoxy-2′-methyl[1,1′-biphenyl]-4-yl)carbonyl]-10,11-dihydro-5H-pyrrolo[2,1-c][1,4]benzodiazepin-3-yl}methanone] |  | -3%
